Test results: paper PMC3177827 (PLoS ONE, 2011)
Where a SMILES comes first, the peptide text is derived from it. The star is where a group is joined. pNA = O=[N+]([O-])c1ccc(N*)cc1; Cbz = O=C(OCc1ccccc1)*

Legend:
WSA-8 (R. aeria) [1] = experiment: Degradation and fragment analysis of 33-mer and 26-mer in a suspension of WSA-8; assay type: in vitro ADME, Rothia aeria; conditions: peptide 250 µg/ml; WSA-8 (R. aeria) in saliva ion buffer, OD620 1.2, pH 7.0; sampled at 0, 30, 60, 120 min; RP-HPLC
Experimental: (§1) Synthetic highly immunogenic peptides derived from α2-gliadin ([…]; 33-mer) or γ-gliadin ([…]; 26-mer) were synthesized at a purity of 95% (21st Century Biochemicals, Marlboro, MA), dissolved in deionized water to 10 mg/ml. The peptides (final concentration 250 µg/ml) were incubated with trypsin or chymotrypsin (1 µg/ml in 50 mM ammonium bicarbonate, pH 8.0), or pepsin (1 µg/ml in 0.1 M HCl, pH 1.0) or strain WSA-8 (R. aeria) in saliva ion buffer (OD620 1.2, pH 7.0). Degradation of the 33-mer and 26-mer over time was monitored in 100 µl aliquots by RP-HPLC as reported previously.
The 100 µl sample aliquots were mixed with 900 µl buffer A containing 0.1% (v/v) trifluoroacetic acid (TFA), filtered and analyzed by RP-HPLC using a HPLC Model 715 (Gilson, Middleton, WI) and a C-18 column (TSK-GEL 5 µm, ODS-120T, 4.6×250 mm, TOSOHaas, Montgomeryville, PA). […] The eluate was monitored at 219 and 230 nm and eluting fractions were collected using peak width and peak sensitivity settings of 1.2 and 5, respectively (Unipoint version 3.3, Gilson). […]
All dried peaks were dissolved in 25 µl of a solution containing 5% acetonitrile and 0.1% formic acid. […] The raw MS/MS data of the peptide ions in each of the analyzed samples were searched against an in-house generated database containing the sequences of the 33-mer and the 26-mer using SEQUEST software (Bioworks Browser 3.3.1, Thermo-Finnigan). […]

chymotrypsin = experiment: Degradation of 33-mer and 26-mer gliadin peptides by chymotrypsin; assay type: in vitro ADME; conditions: peptide 250 µg/ml; chymotrypsin 1 µg/ml in 50 mM ammonium bicarbonate, pH 8.0; sampled at t = 0 and 24 h; RP-HPLC
Experimental: as §1
(§2) The 100 µl sample aliquots were mixed with 900 µl buffer A containing 0.1% (v/v) trifluoroacetic acid (TFA), filtered and analyzed by RP-HPLC using a HPLC Model 715 (Gilson, Middleton, WI) and a C-18 column (TSK-GEL 5 µm, ODS-120T, 4.6×250 mm, TOSOHaas, Montgomeryville, PA). Peptides were eluted using a linear gradient from 0% to 55% buffer B containing 80% (v/v) acetonitrile and 0.1% (v/v) TFA over a 75 min time interval at a flow rate of 1.0 ml/min. The eluate was monitored at 219 and 230 nm and eluting fractions were collected using peak width and peak sensitivity settings of 1.2 and 5, respectively (Unipoint version 3.3, Gilson). […]
(§3) Figure 4 Degradation of the 33-mer by mammalian enzymes and by enzymes associated with R. aeria. […] Degradation of the 33-mer in incubation aliquots was monitored by RP-HPLC. […]

pepsin = experiment: Degradation of 33-mer and 26-mer gliadin peptides by pepsin; assay type: in vitro ADME; conditions: peptide 250 µg/ml; pepsin 1 µg/ml in 0.1 M HCl, pH 1.0; sampled at t = 0 and 24 h; RP-HPLC
Experimental: as §1, §2, §3

trypsin = experiment: Degradation of 33-mer and 26-mer gliadin peptides by trypsin; assay type: in vitro ADME; conditions: peptide 250 µg/ml; trypsin 1 µg/ml in 50 mM ammonium bicarbonate, pH 8.0; sampled at t = 0 and 24 h; RP-HPLC
Experimental: as §1, §2, §3

[2] = WSA-8 cells (OD620 1.2) in 20 mM Tris solution, pH 2.0; conditions: Rothia aeria (strain WSA-8), up to 72 h
[3] = bacterial suspension in saliva ion buffer (OD620 1.2); conditions: up to 24 h
WSA-8 (R. aeria) [4] = experiment: pH activity analysis: Z-YPQ-pNA hydrolysis by WSA-8 cells; assay type: biochemical, Rothia aeria; conditions: Z-YPQ-pNA 200 µM, WSA-8 cells OD620 1.2, 20 mM Tris, 405 nm, activity not reactivated at neutral pH
Experimental: Figure 6 Gliadin zymography (6%) of Rothia strains and pH activity analysis. In the zymogram gels 150 µl cells (OD620 5.0) were applied per lane. Lane 1, strain WSA-2B (R. mucilaginosa); lanes 2: strain WSA-8 (R. aeria), lane 3: strain WSA-26 (R. mucilaginosa); lane 4: strain ATCC 25296 (R. mucilaginosa). A, gel developed at pH 7.0; B, gel developed at pH 3.0. C, Z-YPQ-pNA (200 µM) hydrolysis by WSA-8 cells (OD620 1.2) measured in 20 mM Tris solutions ranging in pH from 2.0 to 10.0. Measurements at 405 nm were carried out hourly for the first 6 hours and after 24 h and 72 h.
To determine protease activities under conditions that are representative of the stomach, the zymogram gel with the four Rothia strains was also developed at pH 3.0 (Figure 6B). […] To further investigate the pH range over which strain R. aeria was active, Z-YPQ-pNA substrate hydrolysis was measured in solutions ranging in pH from 2.0 to 10.0. […] Substrate hydrolysis rates decreased in parallel with decreasing pH values from pH 7.0 to pH 4.0. At pH 3.0 substrate cleavage was noted only after 72 h incubation. The slow but noticeable enzyme activity of R. aeria at this pH value is consistent with the gliadin zymogram results presented in Figure 6B.

In the case of `CC(C)C[C@H](NC(=O)[C@@H](N)Cc1ccccc1)C(=O)N[C@@H](CCC(N)=O)C(=O)N1CCC[C@H]1C(=O)N[C@@H](CCC(N)=O)C(=O)N[C@@H](CCC(N)=O)C(=O)N1CCC[C@H]1C(=O)N[C@@H](Cc1ccccc1)C(=O)N1CCC[C@H]1C(=O)N[C@@H](CCC(N)=O)C(=O)N[C@@H](CCC(N)=O)C(=O)N1CCC[C@H]1C(=O)N[C@@H](CCC(N)=O)C(=O)N[C@@H](CCC(N)=O)C(=O)N1CCC[C@H]1C(=O)N[C@@H](Cc1ccc(O)cc1)C(=O)N1CCC[C@H]1C(=O)N[C@@H](CCC(N)=O)C(=O)N[C@@H](CCC(N)=O)C(=O)N1CCC[C@H]1C(=O)N[C@@H](CCC(N)=O)C(=O)N[C@@H](CCC(N)=O)C(=O)N1CCC[C@H]1C(=O)N[C@@H](Cc1ccccc1)C(=O)N1CCC[C@H]1C(=O)N[C@@H](CCC(N)=O)C(=O)O` [26-mer] (H-FLQPQQPFPQQPQQPYPQQPQQPFPQ-OH), the “degradation in a cell suspension of WSA-8 over the 2 h time interval” value (WSA-8 (R. aeria) [1]) is reported as “sensitive to proteolytic degradation”, the degradation by chymotrypsin (chymotrypsin) is reported as “resistant to degradation” and the degradation by pepsin (pepsin) is reported as “resistant to degradation”. For the same compound, the degradation by trypsin (trypsin) was “resistant to degradation”.

In the case of `CC(C)C[C@H](NC(=O)[C@H](CCC(N)=O)NC(=O)[C@@H](N)CC(C)C)C(=O)N[C@@H](CCC(N)=O)C(=O)N1CCC[C@H]1C(=O)N[C@@H](Cc1ccccc1)C(=O)N1CCC[C@H]1C(=O)N[C@@H](CCC(N)=O)C(=O)N1CCC[C@H]1C(=O)N[C@@H](CCC(N)=O)C(=O)N[C@@H](CC(C)C)C(=O)N1CCC[C@H]1C(=O)N[C@@H](Cc1ccc(O)cc1)C(=O)N1CCC[C@H]1C(=O)N[C@@H](CCC(N)=O)C(=O)N1CCC[C@H]1C(=O)N[C@@H](CCC(N)=O)C(=O)N[C@@H](CC(C)C)C(=O)N1CCC[C@H]1C(=O)N[C@@H](Cc1ccc(O)cc1)C(=O)N1CCC[C@H]1C(=O)N[C@@H](CCC(N)=O)C(=O)N1CCC[C@H]1C(=O)N[C@@H](CCC(N)=O)C(=O)N[C@@H](CC(C)C)C(=O)N1CCC[C@H]1C(=O)N[C@@H](Cc1ccc(O)cc1)C(=O)N1CCC[C@H]1C(=O)N[C@@H](CCC(N)=O)C(=O)N1CCC[C@H]1C(=O)N[C@@H](CCC(N)=O)C(=O)N1CCC[C@H]1C(=O)N[C@@H](Cc1ccccc1)C(=O)O` [33-mer] (H-LQLQPFPQPQLPYPQPQLPYPQPQLPYPQPQPF-OH), the degradation by chymotrypsin (chymotrypsin) is reported as “resistant to degradation”, the degradation by pepsin (pepsin) is reported as “resistant to degradation” and the degradation by trypsin (trypsin) is reported as “resistant to degradation”.

In the case of Cbz-Tyr-Pro-Gln-pNA, the not cleaved [2] is reported as “no Z-YPQ-pNA hydrolysis could be observed”, the not cleaved ([3]; Bifidobacterium dentium HOT-588 (strain PAN-5)) is reported as “− after 24 h” and the not cleaved ([3]; Bifidobacterium dentium HOT-588 (strain PAN-8)) is reported as “− after 24 h”. The not cleaved ([3]; Bifidobacterium dentium HOT-588 (strain PAN-18)) was “− after 24 h”, the not cleaved ([3]; Bifidobacterium dentium HOT-588 (strain PAN-19)) was “− after 24 h” and the not cleaved ([3]; Bifidobacterium dentium HOT-588 (strain PAN-23)) was “− after 24 h”. For the same compound, the not cleaved ([3]; Bifidobacterium longum HOT-B54 (strain WSAN-14)) was “− after 24 h”, the not cleaved ([3]; Bifidobacterium longum HOT-B54 (strain WSAN-16)) was “− after 24 h” and the not cleaved ([3]; Bifidobacterium longum HOT-B54 (strain WSAN-24)) was “− after 24 h”. For the same compound, the not cleaved ([3]; Staphylococcus epidermidis HOT-601 (strain WSA-10)) was “− (inactive) after 24 h”, the not cleaved ([3]; Streptococcus pneumoniae HOT-734 (strain PAN-0)) was “− after 24 h” and the not cleaved ([3]; Veilonella atypica HOT-524 (strain WSAN-25)) was “− after 24 h”.

With “benzyloxycarbonyl-YPQ-paranitroanilide [Z-YPQ-pNA]” the “substrate hydrolysis at pH 2.0” value (WSA-8 (R. aeria) [4]) was “no Z-YPQ-pNA hydrolysis could be observed”.
